Experimental data as given in patent publication US20240173279A1, “Method of Treatment for Autophagy Diseases by Administration of Dexibuprofen and Use of Dexibuprofen for Preparation of a Medicament for Same” (JEM THERAPEUTICS PBC, priority 2021, published 2024).
Read-outs that look alike come from different tables or passages of the source.

Assays:
[1] = system: Hereditary Spastic Paraparesis, homozygous TECPR2 mutations; assay: Treatment of a patient with Hereditary Spastic Paraparesis (Example 2); assay type: in vivo; conditions: human patient, daily oral doses, after 30 days of treatment
Description: A human patient is tested and found to be homozygous for TECPR2 mutations and suffering from neurodegenerative issues related to Hereditary Spastic Paraparesis. The patient is given daily oral doses of dexibuprofen to reduce the effects of the disease.

[2] = in vivo; cited from earlier work
[3] = cited from earlier work; for safety / side effect profile compared to ibuprofen: published studies, incl. pediatric population

| Compound | neurodegenerative issues relating to TECPR2 mutations [1] | crossing of the blood brain barrier (BBB) [2] | safety profile compared to acetaminophen ([3]; in vivo) | safety / side effect profile compared to ibuprofen [3] | safety / side effect profile compared to ibuprofen ([3]; listed as dexibuprofen) |
| --- | --- | --- | --- | --- | --- |
| CC(C)Cc1ccc([C@H](C)C(=O)O)cc1 [Dexibuprofen, (S)-a-methyl-4-(2-methylpropyl)benzeneacetic acid] | reduced neurodegenerative issues | crosses the blood brain barrier | superior safety profile to acetaminophen | extremely similar to ibuprofen | did not note safety differences |
| CC(C)Cc1ccc(C(C)C(=O)O)cc1 (stereo not drawn) [ibuprofen] |  | crosses the blood brain barrier |  |  |  |
